Results from patent US12545640B2, “Substituted 6,7-dihydro-5H-benzo[7]annulene compounds, processes for their preparation and therapeutic uses thereof” (SANOFI, priority 2019, dated 2026).

Biological target: T1, ERα (Homo sapiens, UniProt P03372)
T1 construct: host or cells: MCF7 cells
T1 sequence (P03372 1-595): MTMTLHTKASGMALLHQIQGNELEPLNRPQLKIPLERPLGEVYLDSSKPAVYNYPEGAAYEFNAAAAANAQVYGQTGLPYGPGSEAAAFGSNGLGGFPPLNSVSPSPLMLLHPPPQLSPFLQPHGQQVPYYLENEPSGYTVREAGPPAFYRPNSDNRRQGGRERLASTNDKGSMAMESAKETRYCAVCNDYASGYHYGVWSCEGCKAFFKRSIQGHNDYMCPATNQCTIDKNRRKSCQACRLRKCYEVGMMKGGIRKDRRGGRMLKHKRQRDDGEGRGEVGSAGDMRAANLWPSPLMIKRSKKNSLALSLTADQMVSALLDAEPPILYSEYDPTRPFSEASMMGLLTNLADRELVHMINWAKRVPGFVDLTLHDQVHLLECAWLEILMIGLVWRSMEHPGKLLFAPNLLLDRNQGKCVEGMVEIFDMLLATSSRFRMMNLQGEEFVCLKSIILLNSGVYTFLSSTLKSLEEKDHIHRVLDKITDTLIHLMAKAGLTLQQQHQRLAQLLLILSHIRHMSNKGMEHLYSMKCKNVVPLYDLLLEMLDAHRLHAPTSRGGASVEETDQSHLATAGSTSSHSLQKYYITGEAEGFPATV
Assay: Estrogen receptor degradation activity: breast cancer cell ERα in cell western assay (MCF7 cells)
Assay type: cell-based
Conditions: 4 hours, relative to fulvestrant 0.1 μM positive control; for % Degradation At 0.3 μM: final concentrations ranging from 0.3-0.0000018 μM
Outline: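 MCF7 cells in phenol red-free MEM alpha with 5% charcoal-stripped FBS, treated 4 h with 9-point 1:5 dilutions (top final 3 or 0.3 μM); fulvestrant 0.1 μM as positive control. Formalin-fixed, anti-ER antibody with Alexa 488 secondary; ERα fluorescence normalised to Syto-64 DNA signal.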

Compound	% Degradation At 0.3 μM [%]	% Degradation At 3 μM (final concentrations ranging from 3-0.000018 μM) [%]
CCOc1ccc(C2=C(c3ccc(O[C@H]4CCN(CCCF)C4)cc3)c3ccc(C(N)=O)cc3CCC2)c(F)n1 [Example 79, (S)-8-(6-ethoxy-2-fluoropyridin-3-yl)-9-(4-((1-(3-fluoropropyl)pyrrolidin-3-yl)oxy)phenyl)-6,7-dihydro-5H-benzo[7]annulene-3-carboxamide]	91	
CCOc1ccc(C2=C(c3ccc(O[C@H]4CCN(CCCF)C4)cc3)c3ccc(C#N)cc3CCC2)c(F)n1 [Example 80, (S)-8-(6-ethoxy-2-fluoropyridin-3-yl)-9-(4-((1-(3-fluoropropyl)pyrrolidin-3-yl)oxy)phenyl)-6,7-dihydro-5H-benzo[7]annulene-3-carbonitrile 2,2,2-trifluoroacetate]	90	
NC(=O)c1ccc(-c2ccc3c(c2)CCCC(c2ccc(Cl)cc2Cl)=C3c2ccc(O[C@H]3CCN(CCCF)C3)cc2)cc1 [Example 81, (S)-4-(8-(2,4-dichlorophenyl)-9-(4-((1-(3-fluoropropyl)pyrrolidin-3-yl)oxy)phenyl)-6,7-dihydro-5H-benzo[7]annulen-3-yl)benzamide]	67	
COC(=O)c1ccccc1-c1ccc2c(c1)CCCC(c1ccc(Cl)cc1Cl)=C2c1ccc(O[C@H]2CCN(CCCF)C2)cc1 [Example 83, methyl (S)-2-(8-(2,4-dichlorophenyl)-9-(4-((1-(3-fluoropropyl)pyrrolidin-3-yl)oxy)phenyl)-6,7-dihydro-5H-benzo[7]annulen-3-yl)benzoate]	63	
O=C(Nc1ccc2c(c1)CCCC(c1ccc(Cl)cc1Cl)=C2c1ccc(O[C@H]2CCN(CCCF)C2)cc1)C1(O)CC1.O=CO [Example 84, (S)—N-(8-(2,4-dichlorophenyl)-9-(4-((1-(3-fluoropropyl)pyrrolidin-3-yl)oxy)phenyl)-6,7-dihydro-5H-benzo[7]annulen-3-yl)-1-hydroxycyclopropane-1-carboxamide formate]	71	
O=C1C[C@H](O)CN1c1ccc2c(c1)CCCC(c1ccc(Cl)cc1Cl)=C2c1ccc(O[C@H]2CCN(CCCF)C2)cc1 [Example 85, (S)-1-(8-(2,4-dichlorophenyl)-9-(4-(((S)-1-(3-fluoropropyl)pyrrolidin-3-yl)oxy)phenyl)-6,7-dihydro-5H-benzo[7]annulen-3-yl)-4-hydroxypyrrolidin-2-one]	69	
O=C(O)c1ccccc1-c1ccc2c(c1)CCCC(c1ccc(Cl)cc1Cl)=C2c1ccc(O[C@H]2CCN(CCCF)C2)cc1 [Example 86, (S)-2-(8-(2,4-dichlorophenyl)-9-(4-((1-(3-fluoropropyl)pyrrolidin-3-yl)oxy)phenyl)-6,7-dihydro-5H-benzo[7]annulen-3-yl)benzoic acid]	88	
O=C(Nc1ccc2c(c1)CCCC(c1ccc(Cl)cc1Cl)=C2c1ccc(O[C@H]2CCN(CCCF)C2)cc1)C1CC1(F)F (stereo partly drawn) [Example 87, N-(8-(2,4-dichlorophenyl)-9-(4-(((S)-1-(3-fluoropropyl)pyrrolidin-3-yl)oxy)phenyl)-6,7-dihydro-5H-benzo[7]annulen-3-yl)-2,2-difluorocyclopropane-1-carboxamide]	73	
CS(=O)(=O)Nc1ccc2c(c1)CCCC(c1cccc(F)c1Cl)=C2c1ccc(O[C@H]2CCN(CCCF)C2)cc1 [Example 90, (S)—N-(8-(2-chloro-3-fluorophenyl)-9-(4-((1-(3-fluoropropyl)pyrrolidin-3-yl)oxy)phenyl)-6,7-dihydro-5H-benzo[7]annulen-3-yl)methanesulfonamide]	77	
CC1(C)OB(c2ccc3c(c2)CCCC(c2ccccc2)=C3c2ccc(O[C@H]3CCN(CCCF)C3)cc2)OC1(C)C [Example 91, (S)-1-(3-fluoropropyl)-3-(4-(8-phenyl-3-(4,4,5,5-tetramethyl-1,3,2-dioxaborolan-2-yl)-6,7-dihydro-5H-benzo[7]annulen-9-yl)phenoxy)pyrrolidine]	90	
OB(O)c1ccc2c(c1)CCCC(c1ccccc1)=C2c1ccc(O[C@H]2CCN(CCCF)C2)cc1 [Example 92, (S)-(9-(4-((1-(3-fluoropropyl)pyrrolidin-3-yl)oxy)phenyl)-8-phenyl-6,7-dihydro-5H-benzo[7]annulen-3-yl)boronic acid]	85	
O=C(O)Cc1ccc2c(c1)CCCC(c1ccc(Cl)cc1Cl)=C2c1ccc(O[C@H]2CCN(CCCF)C2)cc1 [Example 93, (S)-2-(8-(2,4-dichlorophenyl)-9-(4-((1-(3-fluoropropyl)pyrrolidin-3-yl)oxy)phenyl)-6,7-dihydro-5H-benzo[7]annulen-3-yl)acetic acid]		84
CC(C)(O)c1cccc(-c2ccc3c(c2)CCCC(c2ccc(Cl)cc2Cl)=C3c2ccc(O[C@H]3CCN(CCCF)C3)cc2)c1 [Example 94, (S)-2-(3-(8-(2,4-dichlorophenyl)-9-(4-((1-(3-fluoropropyl)pyrrolidin-3-yl)oxy)phenyl)-6,7-dihydro-5H-benzo[7]annulen-3-yl)phenyl)propan-2-ol]	64	
O=[N+]([O-])c1cccc(-c2ccc3c(c2)CCCC(c2cccc(F)c2Cl)=C3c2ccc(O[C@H]3CCN(CCCF)C3)cc2)c1 [Example 96, (S)-3-(4-(8-(2-chloro-3-fluorophenyl)-3-(3-nitrophenyl)-6,7-dihydro-5H-benzo[7]annulen-9-yl)phenoxy)-1-(3-fluoropropyl)pyrrolidine]	76	
CC(C)(O)c1ccc(-c2ccc3c(c2)CCCC(c2cccc(F)c2Cl)=C3c2ccc(O[C@H]3CCN(CCCF)C3)cc2)cc1 [Example 98, (S)-2-(4-(8-(2-chloro-3-fluorophenyl)-9-(4-((1-(3-fluoropropyl)pyrrolidin-3-yl)oxy)phenyl)-6,7-dihydro-5H-benzo[7]annulen-3-yl)phenyl)propan-2-ol]	59	
